Starred links: 1 amine or outer side, 2 acyl side, 3 side chain; linkers in the order of their positions; H or OH if unused. Positions of bridges follow the written chain, without caps; N, C: chain ends. Non-standard residues stand in square brackets, D forms with d. Residues, ends and D or L forms follow the SMILES beside them. dTyr(3,5-I2) = N[C@H](Cc1cc(I)c(O)c(I)c1)C(=O)O; dTyr(3-I) = N[C@H](Cc1ccc(O)c(I)c1)C(=O)O; X1 = O=C(CC1(S[*:2])CCCCC1)[*:1]

The target in this test is vasopressin receptors (V2 -receptors) (Sus scrofa, UniProt P32307). Kind of test: biochemical. From the text: These values represent total and non-specific binding, respectively.
Chain of vasopressin receptors (V2 -receptors) (P32307 whole entry): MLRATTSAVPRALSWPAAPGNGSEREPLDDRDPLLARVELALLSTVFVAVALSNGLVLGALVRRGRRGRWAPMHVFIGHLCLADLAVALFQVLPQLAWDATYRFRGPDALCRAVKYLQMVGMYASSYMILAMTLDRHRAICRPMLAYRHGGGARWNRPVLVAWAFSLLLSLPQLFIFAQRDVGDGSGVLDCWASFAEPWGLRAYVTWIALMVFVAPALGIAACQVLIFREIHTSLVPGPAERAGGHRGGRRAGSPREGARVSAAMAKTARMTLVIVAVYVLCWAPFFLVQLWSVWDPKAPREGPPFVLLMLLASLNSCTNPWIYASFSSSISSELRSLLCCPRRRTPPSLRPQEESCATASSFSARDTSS
`CC(C)[C@@H]1NC(=O)[C@H](Cc2ccccc2)NC(=O)[C@@H](Cc2ccc(O)c(I)c2)NC(=O)CC2(CCCCC2)SSC[C@@H](C(=O)N2CCC[C@H]2C(=O)N[C@@H](CCCNC(=N)N)C(=O)NCC(N)=O)NC(=O)[C@H](CC(N)=O)NC1=O` [B, [Pmp^1, D-Tyr(I)^2, Val^4]AVP] ([dTyr(3-I)]FVNCPRG-NH2; linker N-5 via X1): the Kb is 120 nM.

`CC(C)[C@@H]1NC(=O)[C@H](Cc2ccccc2)NC(=O)[C@@H](Cc2cc(I)c(O)c(I)c2)NC(=O)CC2(CCCCC2)SSC[C@@H](C(=O)N2CCC[C@H]2C(=O)N[C@@H](CCCNC(=N)N)C(=O)NCC(N)=O)NC(=O)[C@H](CC(N)=O)NC1=O` [C, [Pmp^1, D-Tyr(I2)^2, Val^4]AVP] ([dTyr(3,5-I2)]FVNCPRG-NH2; linker N-5 via X1) showed a Kb of 2400 nM. The result for `CC(C)[C@@H]1NC(=O)[C@H](Cc2ccccc2)NC(=O)[C@@H](Cc2ccc(O)cc2)NC(=O)CC2(CCCCC2)SSC[C@@H](C(=O)N2CCC[C@H]2C(=O)N[C@@H](CCCN=C(N)N)C(=O)NCC(N)=O)NC(=O)[C@H](CC(N)=O)NC1=O` [A, [Pmp^1, D-Tyr^2, Val^4]AVP, reference compound] ([dY]FVNCPRG-NH2; linker N-5 via X1) reads 100 nM.

Values taken from US4469680A, “Iodinated vasopressin antagonists” (SmithKline Beckman Corporation, priority 1983, dated 1984).
